Source: the NIST ThermoML archive (doi:10.1021/je900387e)

Assay: xn = mol fraction of the nth substance listed
Conditions: Liquid, Pycnometric method

CCCCBr [1-bromobutane] + O=C=O
Conditions | mass density [kg/m3]
332.4 K, 10370 kPa, x1 = 0.1495 | 915
332.4 K, 10440 kPa, x1 = 0.0461 | 587
332.4 K, 10440 kPa, x1 = 0.0683 | 677
332.4 K, 10510 kPa, x1 = 0.0989 | 783
332.4 K, 10520 kPa, x1 = 0.0461 | 595
332.4 K, 10560 kPa, x1 = 0.1495 | 918
332.4 K, 10570 kPa, x1 = 0.0683 | 686
332.4 K, 10590 kPa, x1 = 0.0461 | 603
332.4 K, 10650 kPa, x1 = 0.0989 | 788
332.4 K, 10710 kPa, x1 = 0.0683 | 694
332.4 K, 10720 kPa, x1 = 0.0461 | 615
332.4 K, 10750 kPa, x1 = 0.1495 | 921
332.4 K, 10820 kPa, x1 = 0.0989 | 793
332.4 K, 10870 kPa, x1 = 0.0683 | 703
332.4 K, 10880 kPa, x1 = 0.0461 | 627
332.4 K, 10940 kPa, x1 = 0.1495 | 924
332.4 K, 10990 kPa, x1 = 0.0989 | 798
332.4 K, 11050 kPa, x1 = 0.0683 | 712
332.4 K, 11070 kPa, x1 = 0.0461 | 640
332.4 K, 11120 kPa, x1 = 0.1495 | 927
332.4 K, 11180 kPa, x1 = 0.0989 | 804
332.4 K, 11240 kPa, x1 = 0.0683 | 721
332.4 K, 11270 kPa, x1 = 0.0461 | 654
332.4 K, 11310 kPa, x1 = 0.1495 | 930
332.4 K, 11390 kPa, x1 = 0.0989 | 808
332.4 K, 11460 kPa, x1 = 0.0683 | 730
332.4 K, 11510 kPa, x1 = 0.0461 | 668
332.4 K, 11530 kPa, x1 = 0.1495 | 933
332.4 K, 11600 kPa, x1 = 0.0989 | 814
332.4 K, 11720 kPa, x1 = 0.0683 | 739
332.4 K, 11730 kPa, x1 = 0.1495 | 936
332.4 K, 11780 kPa, x1 = 0.0461 | 683
332.4 K, 11830 kPa, x1 = 0.0989 | 819
332.4 K, 11970 kPa, x1 = 0.1495 | 939
332.4 K, 11980 kPa, x1 = 0.0461 | 689
332.4 K, 12000 kPa, x1 = 0.0683 | 749
332.4 K, 12060 kPa, x1 = 0.0989 | 825
332.4 K, 12190 kPa, x1 = 0.1495 | 942
332.4 K, 12220 kPa, x1 = 0.0461 | 703
332.4 K, 12330 kPa, x1 = 0.0461 | 708
332.4 K, 12330 kPa, x1 = 0.0683 | 759
332.4 K, 12330 kPa, x1 = 0.0989 | 830
332.4 K, 12450 kPa, x1 = 0.1495 | 945
332.4 K, 12620 kPa, x1 = 0.0989 | 836
332.4 K, 12650 kPa, x1 = 0.1495 | 948
332.4 K, 12670 kPa, x1 = 0.0683 | 770
332.4 K, 12920 kPa, x1 = 0.1495 | 951
332.4 K, 12930 kPa, x1 = 0.0989 | 842
332.4 K, 13080 kPa, x1 = 0.0683 | 780
332.4 K, 13170 kPa, x1 = 0.1495 | 954
332.4 K, 13250 kPa, x1 = 0.0989 | 847
332.4 K, 13470 kPa, x1 = 0.1495 | 958
332.4 K, 13540 kPa, x1 = 0.0683 | 791
332.4 K, 13600 kPa, x1 = 0.0989 | 853
332.4 K, 13750 kPa, x1 = 0.1495 | 961
332.4 K, 13980 kPa, x1 = 0.0989 | 859
332.4 K, 14040 kPa, x1 = 0.1495 | 964
332.4 K, 14050 kPa, x1 = 0.0683 | 802
332.4 K, 14320 kPa, x1 = 0.1495 | 967
332.4 K, 14360 kPa, x1 = 0.0989 | 865
332.4 K, 14630 kPa, x1 = 0.1495 | 970
332.4 K, 14640 kPa, x1 = 0.0683 | 814
332.4 K, 14810 kPa, x1 = 0.0989 | 871
332.4 K, 14910 kPa, x1 = 0.1495 | 973
332.4 K, 14960 kPa, x1 = 0.0683 | 820
332.4 K, 15090 kPa, x1 = 0.1495 | 975
335.9 K, 10180 kPa, x1 = 0.0683 | 589
335.9 K, 10200 kPa, x1 = 0.0683 | 591
335.9 K, 10210 kPa, x1 = 0.0683 | 593
335.9 K, 10240 kPa, x1 = 0.0683 | 597
335.9 K, 10250 kPa, x1 = 0.0683 | 601
335.9 K, 10310 kPa, x1 = 0.0683 | 607
335.9 K, 10380 kPa, x1 = 0.0683 | 614
335.9 K, 10450 kPa, x1 = 0.0683 | 620
335.9 K, 10540 kPa, x1 = 0.0683 | 627
335.9 K, 10610 kPa, x1 = 0.0683 | 634
335.9 K, 10700 kPa, x1 = 0.0683 | 641
335.9 K, 10790 kPa, x1 = 0.0683 | 649
335.9 K, 10940 kPa, x1 = 0.0683 | 660
335.9 K, 11140 kPa, x1 = 0.0683 | 672
335.9 K, 11350 kPa, x1 = 0.0683 | 684
335.9 K, 11590 kPa, x1 = 0.0683 | 697
335.9 K, 11870 kPa, x1 = 0.0683 | 710
335.9 K, 12340 kPa, x1 = 0.0683 | 728
335.9 K, 12930 kPa, x1 = 0.0683 | 747
335.9 K, 13690 kPa, x1 = 0.0683 | 767
335.9 K, 14350 kPa, x1 = 0.0683 | 783
335.9 K, 14890 kPa, x1 = 0.0683 | 794
335.9 K, 14990 kPa, x1 = 0.0683 | 797
335.9 K, 15110 kPa, x1 = 0.0683 | 800
337.4 K, 10000 kPa, x1 = 0.1495 | 872
337.4 K, 10190 kPa, x1 = 0.1495 | 876
337.4 K, 10210 kPa, x1 = 0.0461 | 479
337.4 K, 10240 kPa, x1 = 0.0989 | 714
